In general, GI50 refers to the concentration at which growth is held to half of that of the control.

Some test systems named below: CCRF-CEM; HOP-62; HCT-15; SR; MCF7; RXF 393; KM12; SF-539; NCI/ADR-RES; M14; UO-31; SK-MEL-5; MOLT-4; Hs-578T; DU-145; NCI-H460; SK-MEL-28; UACC-62; 786-0; U-251.
Common to all, as to assay: DTP human tumour cell line panel, 48 h

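Grown in 96-well plates, cells were treated for 48 hours with each compound at five concentrations. Insufficient inhibition: endpoint recorded as highest concentration tested. GI50: concentration for 50% inhibition of growth.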 Active and inactive are the calls of the source. Rule as the data show it: active = GI50 up to about 1.1 µM and inactive = higher. Where only a bound is given, the exact number is not on record here.

For the compound `CN(COC(=O)c1ccccc1)c1nc(N(C)COC(=O)c2ccccc2)nc(N(C)COC(=O)c2ccccc2)n1`, the GI50 in the assay on CCRF-CEM is > 100 µM (inactive); in the assay with HOP-62 it was 14.7 µM (inactive); with HCT-15, > 100 µM; in the assay on SR it was > 100 µM (inactive); in the assay with MCF7 it was > 71.9 µM (inactive); in the assay with RXF 393, 7.83 µM (inactive). The GI50 was > 100 µM (inactive) in the assay on KM12; 12.2 µM (inactive) with SF-539; 50.1 µM (inactive) with NCI/ADR-RES; > 86.3 µM (inactive) in the assay on M14; > 83.9 µM (inactive) with UO-31; > 100 µM (inactive) in the assay with SK-MEL-5. Besides, the GI50 in the assay on MOLT-4 was > 100 µM (inactive); in the assay with Hs-578T it was 22.4 µM (inactive); in the assay with DU-145, > 100 µM (inactive); in the assay with NCI-H460, > 69.5 µM (inactive); with SK-MEL-28, > 100 µM (inactive); with UACC-62, > 60.7 µM (inactive). Besides, the GI50 was 11.4 µM (inactive) with 786-0 and 20.2 µM (inactive) with U-251.

`N#CC(NNC(=O)Cc1ccccc1)c1ccccc1O` (stereo not given): the GI50 was 4 µM (inactive) in the assay with CCRF-CEM; 15.8 µM (inactive) in the assay on HOP-62; 4.25 µM in the assay with HCT-15; 7.29 µM (inactive) in the assay on SR; 10.2 µM (inactive) in the assay with MCF7; 24.7 µM (inactive) in the assay with RXF 393. The GI50 in the assay on KM12 was 11.6 µM (inactive); in the assay with SF-539, 16.4 µM (inactive); in the assay on NCI/ADR-RES, 3.93 µM (inactive); in the assay with M14, 10.5 µM (inactive); in the assay on UO-31, 4.54 µM (inactive); in the assay with SK-MEL-5, 10.6 µM (inactive). In addition, the GI50 was 3.72 µM (inactive) in the assay on MOLT-4; 56.2 µM (inactive) in the assay on Hs-578T; 20.8 µM (inactive) in the assay on DU-145; 6.84 µM (inactive) in the assay with NCI-H460; 26.2 µM (inactive) with SK-MEL-28; 5.28 µM (inactive) in the assay with UACC-62. Besides, the GI50 is 8.75 µM (inactive) in the assay on 786-0 and 6.15 µM (inactive) with U-251.

Turning to `O=C(c1ccc([N+](=O)[O-])cc1)C(Br)C(Br)c1ccnc2ccccc12` (stereo not given), the GI50 in the assay with CCRF-CEM is 0.352 µM (active); in the assay on HOP-62 it was 13.9 µM (inactive); in the assay with HCT-15, 6.76 µM; in the assay with SR it was 2.24 µM (inactive); in the assay with MCF7, 2.39 µM (inactive); in the assay on RXF 393, 8.93 µM (inactive). The GI50 in the assay on KM12 is 1.91 µM (inactive); with SF-539, 6.4 µM (inactive); in the assay on NCI/ADR-RES, 8.45 µM (inactive); with M14, 2.8 µM (inactive); in the assay on UO-31 it was 1.77 µM (inactive); with SK-MEL-5, 6.34 µM (inactive). Further, the GI50 is 2.94 µM (inactive) in the assay with MOLT-4; 6.15 µM (inactive) in the assay on Hs-578T; 11.8 µM (inactive) in the assay with DU-145; 4.5 µM (inactive) in the assay with NCI-H460; 11.1 µM (inactive) in the assay with SK-MEL-28; 9.4 µM (inactive) in the assay with UACC-62. For the same compound, the results for the GI50 with 786-0 and with U-251 were 2.54 µM (inactive) and 1.75 µM (inactive), respectively.

These data come from ChEMBL document CHEMBL1201862, “PubChem BioAssay data set” (2004).
